Results reported in PubChem BioAssay AID192 (DTP/NCI, 2004).
Several values for one entry are separate records, joined by “and”; a condition that tells them apart may be missing. Identical values can stand only once. Toxic doses and inconclusive results are not listed. The calls were made as follows: active = survival T/C of 150% or more; inactive = T/C below 125% in these data.

Test system: BDF1 mice, B16 melanoma ip, median survival T/C
Experiment: NCI In Vivo Anticancer Drug Screen. Data for tumor model B16 Melanoma (intraperitoneal) in B6D2F1 (BDF1) mice
Conditions: endpoint: median survival time, higher = longer survival
Outline: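 Transplantable tumor model; survival or tumor size measured; reported as T/C, treated over vehicle control.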

[1] = dose: 50.0 mg/kg/injection, schedule: Q01DX009 (ip), vehicle: other
[2] = dose: 100.0 mg/kg/injection, schedule: Q01DX009 (ip), vehicle: other
[3] = dose: 200.0 mg/kg/injection, schedule: Q01DX009 (ip), vehicle: other
[4] = dose: 100.0 mg/kg/injection, schedule: Q01DX009 (ip), vehicle: Klucel (hydroxypropylcellulose) (HPC)
[5] = dose: 12.5 mg/kg/injection, schedule: Q01DX009 (ip), vehicle: saline with Tween-80
[6] = dose: 25.0 mg/kg/injection, schedule: Q01DX009 (ip), vehicle: saline with Tween-80
[7] = dose: 50.0 mg/kg/injection, schedule: Q01DX009 (ip), vehicle: saline with Tween-80
[8] = dose: 50.0 mg/kg/injection, schedule: Q04DX003 (ip), vehicle: saline with Tween-80
[9] = dose: 100.0 mg/kg/injection, schedule: Q04DX003 (ip), vehicle: saline with Tween-80
[10] = dose: 200.0 mg/kg/injection, schedule: Q04DX003 (ip), vehicle: saline with Tween-80
[11] = dose: 100.0 mg/kg/injection, schedule: Q01DX009 (ip), vehicle: saline with Tween-80
[12] = dose: 6.25 mg/kg/injection, schedule: Q01DX009 (ip), vehicle: Klucel (hydroxypropylcellulose) (HPC)
[13] = dose: 12.5 mg/kg/injection, schedule: Q01DX009 (ip), vehicle: Klucel (hydroxypropylcellulose) (HPC)
[14] = dose: 25.0 mg/kg/injection, schedule: Q01DX009 (ip), vehicle: Klucel (hydroxypropylcellulose) (HPC)
[15] = dose: 50.0 mg/kg/injection, schedule: Q01DX009 (ip), vehicle: Klucel (hydroxypropylcellulose) (HPC)
[16] = dose: 100.0 mg/kg/injection, schedule: Q01DX009 (ip), vehicle: saline
[17] = dose: 200.0 mg/kg/injection, schedule: Q01DX009 (ip), vehicle: saline
[18] = dose: 400.0 mg/kg/injection, schedule: Q01DX009 (ip), vehicle: saline
[19] = dose: 12.5 mg/kg/injection, schedule: Q01DX009 (ip), vehicle: saline
[20] = dose: 25.0 mg/kg/injection, schedule: Q01DX009 (ip), vehicle: saline
[21] = dose: 50.0 mg/kg/injection, schedule: Q01DX009 (ip), vehicle: saline
[22] = dose: 6.25 mg/kg/injection, schedule: Q04DX003 (ip), vehicle: saline
[23] = dose: 12.5 mg/kg/injection, schedule: Q04DX003 (ip), vehicle: saline
[24] = dose: 25.0 mg/kg/injection, schedule: Q04DX003 (ip), vehicle: saline
[25] = dose: 50.0 mg/kg/injection, schedule: Q04DX003 (ip), vehicle: saline
[26] = dose: 100.0 mg/kg/injection, schedule: Q04DX003 (ip), vehicle: saline

Measured: T/C

CCC(C)C#N (configuration not stated)
inactive: dose: 5.0 mg/kg/injection, schedule: Q01DX009 (ip), vehicle: saline 97 % of control | dose: 10.0 mg/kg/injection, schedule: Q01DX009 (ip), vehicle: saline 95 % of control | dose: 20.0 mg/kg/injection, schedule: Q01DX009 (ip), vehicle: saline 100 % of control

CCCCCCCC(=O)CCCCC
inactive: [1] 90 % of control | [2] 94 % of control | [3] 100 % of control

CCCCCCC(O)CCCC (configuration not stated)
inactive: [2] 103 % of control | [3] 90 % of control

CNC(=O)Nc1ccc(C)c(Cl)c1
inactive: [4] 105 % of control | dose: 200.0 mg/kg/injection, schedule: Q01DX009 (ip), vehicle: Klucel (hydroxypropylcellulose) (HPC) 91 % of control

Brc1ccc(-c2csc(Nc3nc(-c4ccc(Br)cc4)cs3)n2)cc1
inactive: [5] 105 % of control | [6] 122 % of control | dose: 25.0 mg/kg/injection, schedule: Q04DX003 (ip), vehicle: saline with Tween-80 97 % of control | [7] 89 % of control and 107 % of control | [8] 100 % of control | [9] 86 % of control and 94 % of control | [10] 86 % of control

CCOC(=O)N(NC(=O)c1ccccc1)C(C)=O
inactive: dose: 6.25 mg/kg/injection, schedule: Q01DX009 (ip), vehicle: other 101 % of control | dose: 12.5 mg/kg/injection, schedule: Q01DX009 (ip), vehicle: other 99 % of control | dose: 25.0 mg/kg/injection, schedule: Q01DX009 (ip), vehicle: other 95 % of control | [1] 95 % of control

CC1C2CC3C(OC(=O)C13)C2I (configuration not stated)
inactive: [11] 107 % of control | dose: 200.0 mg/kg/injection, schedule: Q01DX009 (ip), vehicle: saline with Tween-80 89 % of control

CC(=O)[O][Pb]([O]C(C)=O)([c]1ccccc1)[c]1ccccc1
inactive: [12] 98 % of control | [13] 99 % of control | [14] 103 % of control | [15] 95 % of control

Cc1cc2[nH]c(=O)[nH]c2cc1C
inactive: [7] 97 % of control | [11] 90 % of control

CC(C)(C)OC(=O)NC(Cc1ccc(OCc2ccccc2)cc1)C(=O)O (configuration not stated)
inactive: dose: 6.25 mg/kg/injection, schedule: Q01DX009 (ip), vehicle: saline with Tween-80 104 % of control | [5] 97 % of control | [6] 96 % of control | [7] 95 % of control | [11] 87 % of control

CC/C(CC(C)CC)=N\O (configuration not stated)
inactive: [16] 100 % of control | [17] 94 % of control | [18] 94 % of control

COc1ccc2nc3cc(Cl)ccc3c(NCCNCCNCCNc3c4ccc(Cl)cc4nc4ccc(OC)cc34)c2c1
active: [5] 164 % of control | [19] 155 % of control | [6] 160 % of control | [20] 150 % of control
inactive: dose: 3.12 mg/kg/injection, schedule: Q01DX009 (ip), vehicle: Klucel (hydroxypropylcellulose) (HPC) 103 % of control | [12] 107 % of control | [13] 113 % of control | [14] 113 % of control | [15] 113 % of control | [7] 119 % of control | [11] 90 % of control

O=C(O)CCc1cccnc1
inactive: [21] 104 % of control | [16] 107 % of control | [17] 106 % of control | [18] 107 % of control

CCCC(=O)Nc1ncnc2c1ncn2C1OC2COP(=O)(O)OC2C1OC(=O)CCC (configuration not stated)
inactive: [21] 100 % of control | [16] 94 % of control | [17] 89 % of control

NCCN1CCc2ccccc2C1
inactive: [22] 113 % of control | [23] 110 % of control | dose: 16.5 mg/kg/injection, schedule: Q04DX003 (ip), vehicle: saline 112 % of control | [24] 112 % of control and 115 % of control | dose: 37.5 mg/kg/injection, schedule: Q04DX003 (ip), vehicle: saline 110 % of control

C1CC[N-]CC1.C1CC[N-]CC1.N#C[S-].N#C[S-].[Cu]
inactive: dose: 2.5 mg/kg/injection, schedule: Q04DX003 (ip), vehicle: saline with Tween-80 110 % of control | dose: 5.0 mg/kg/injection, schedule: Q04DX003 (ip), vehicle: saline with Tween-80 93 % of control | dose: 10.0 mg/kg/injection, schedule: Q04DX003 (ip), vehicle: saline with Tween-80 93 % of control

O=C1OCCN1/N=C/c1ccc([N+](=O)[O-])o1
inactive: [4] 100 % of control

COc1cc2c(cc1OC)C1CCN3CCCC3N1CC2 (configuration not stated)
inactive: [14] 105 % of control | [15] 105 % of control | [4] 86 % of control and 100 % of control and 116 % of control

CCOC(=O)C(C)(Br)C(=O)OCC
inactive: [6] 110 % of control | [24] 115 % of control | [7] 102 % of control | [25] 118 % of control | [11] 95 % of control | [26] 118 % of control

CC(O)C(O)C=O (configuration not stated)
inactive: dose: 248.0 mg/kg/injection, schedule: Q01DX009 (ip), vehicle: saline 108 % of control | dose: 346.0 mg/kg/injection, schedule: Q01DX009 (ip), vehicle: saline 97 % of control | dose: 576.0 mg/kg/injection, schedule: Q01DX009 (ip), vehicle: saline 104 % of control

O/N=C\c1ccc(/C=N/O)cc1
inactive: [8] 119 % of control | [9] 119 % of control | [10] 111 % of control

Nc1ncnc2c(C3OC(CO)C(O)C3O)[nH]nc12 (configuration not stated)
inactive: dose: 1.0 mg/kg/injection, schedule: Q01DX009 (ip), vehicle: saline 113 % of control | dose: 2.0 mg/kg/injection, schedule: Q01DX009 (ip), vehicle: saline 122 % of control | dose: 4.0 mg/kg/injection, schedule: Q01DX009 (ip), vehicle: saline 122 % of control | dose: 8.0 mg/kg/injection, schedule: Q01DX009 (ip), vehicle: saline 107 % of control

O=C(O)c1ccc2c([N+](=O)[O-])cccc2n1
inactive: [15] 112 % of control | [4] 112 % of control

CC(CCOCC1CO1)OCC1CO1 (configuration not stated)
inactive: [26] 100 % of control | dose: 200.0 mg/kg/injection, schedule: Q04DX003 (ip), vehicle: saline 108 % of control | dose: 400.0 mg/kg/injection, schedule: Q04DX003 (ip), vehicle: saline 110 % of control

CC1CC[N-]CC1.CC1CC[N-]CC1.CC1CC[N-]CC1.CC1CC[N-]CC1.CS(C)=O.CS(C)=O.[Cl-].[Cl-].[Cl-].[Cl-].[Pt+4].[Rh+3]
inactive: dose: 0.2 mg/kg/injection, schedule: Q01DX009 (ip), vehicle: water 100 % of control | dose: 0.4 mg/kg/injection, schedule: Q01DX009 (ip), vehicle: water 104 % of control | dose: 0.8 mg/kg/injection, schedule: Q01DX009 (ip), vehicle: water 106 % of control | dose: 1.5 mg/kg/injection, schedule: Q01DX009 (ip), vehicle: water 106 % of control | dose: 3.0 mg/kg/injection, schedule: Q01DX009 (ip), vehicle: water 106 % of control

CN(C)CCCN1c2ccccc2S(=O)c2ccc(Cl)cc21 (configuration not stated)
inactive: [19] 97 % of control | [20] 100 % of control | [21] 108 % of control | [16] 94 % of control

C1CCc2nnnn2CC1
inactive: dose: 1.56 mg/kg/injection, schedule: Q04DX003 (ip), vehicle: saline 111 % of control | dose: 3.12 mg/kg/injection, schedule: Q01DX009 (ip), vehicle: saline 113 % of control | dose: 3.12 mg/kg/injection, schedule: Q04DX003 (ip), vehicle: saline 110 % of control | dose: 6.25 mg/kg/injection, schedule: Q01DX009 (ip), vehicle: saline 102 % of control | [22] 106 % of control | [19] 102 % of control | [23] 103 % of control | [20] 88 % of control | [24] 103 % of control and 111 % of control | [25] 105 % of control
